Assay results published in patent publication US10681909B2, “Herbicidal triazoles” (FMC Corporation, priority 2014, dated 2020).

Tests used:
velvetleaf = assay: Test E preemergence; assay type: in vivo, Abutilon theophrasti; details: scale 0 to 100
From the text: (§1) Seeds of plant species selected from corn (Zea mays), soybean (Glycine max), lambsquarters (Chenopodium album), poinsettia, wild (wild poinsettia, Euphorbia heterophylla), pigweed, palmer (palmer pigweed, Amaranthus palmeri), waterhemp (common waterhemp, Amaranthus rudis), surinam grass (Brachiaria decumbens), crabgrass, large (large crabgrass, Digitaria sanguinalis), crabgrass, Brazilian (Brazilian crabgrass, Digitaria horizontalis), panicum, fall (fall panicum, Panicum dichotomiflorum), foxtail, giant (giant foxtail, Setaria faberii), foxtail, green (green foxtail, Setaria viridis), goosegrass (Eleusine indica), johnsongrass (Sorghum halepense), ragweed (common ragweed, Ambrosia elatior), barnyardgrass (Echinochloa crus-galli), sandbur (southern sandbur, Cenchrus echinatus), arrowleaf sida (Sida rhombifolia), ryegrass, Italian (Italian ryegrass, Lolium multiflorum), dayflower, VA (Virginia dayflower, Commelina virginica), field bindweed (Convolvulus arvensis), cocklebur (common cocklebur, Xanthium strumarium), morningglory (Ipomoea coccinea), nightshade (eastern black nightshade, Solanum ptycanthum), kochia (Kochia scoparia), nutsedge, yellow (yellow nutsedge, Cyperus esculentus), smartweed (ladysthumb smartweed, Polygonum persicaria), velvetleaf (Abutilon theophrasti), horseweed (Conyza canadensis), and beggarticks (hairy beggarticks, Bidens pilosa), were planted into a silt loam soil and treated preemergence with test chemicals formulated in a non-phytotoxic solvent mixture which included a surfactant.
(§2) At the same time, plants from these crop and weed species and also waterhemp_RES1, (ALS & Triazine resistant common waterhemp, Amaranthus rudis), and waterhemp_RES2, (ALS & HPPD resistant common waterhemp, Amaranthus rudis) were planted in pots containing Sunshine Redi-Earth® planting medium comprising spaghnum peat moss, vermiculite, starter nutrients and dolomitic limestone were treated with postemergence applications of test chemicals formulated in the same manner. Plants ranged in height from 2 to 18 cm for postemergence treatments (1- to 4-leaf stage). Treated plants and controls were maintained in a greenhouse for 14 to 21 d, after which time all species were compared to controls and visually evaluated. Plant response ratings, summarized in Table E, are based on a scale of 0 to 100 where 0 is no effect and 100 is complete control. A dash (-) response means no test result.

beggarticks = assay: Test E postemergence; assay type: in vivo, Bidens pilosa; details: scale 0 to 100
From the text: as §1, §2

crabgrass, Brazilian = assay: Test E preemergence; assay type: in vivo, Digitaria horizontalis; details: Brazil, scale 0 to 100
From the text: as §1, §2

canarygrass = assay: Test D postemergence; assay type: in vivo, Phalaris minor; details: scale 0 to 100
From the text: (§3) Seeds of plant species selected from bluegrass (annual bluegrass, Poa annua), blackgrass (Alopecurus myosuroides), canarygrass (Phalaris minor), chickweed (common chickweed, Stellaria media), galium (catchweed bedstraw, Galium aparine), bromegrass, down (downy bromegrass, Bromus tectorum), Russian thistle (Salsola kali), field poppy (Papaver rhoeas), field violet (Viola arvensis), foxtail, green (green foxtail, Setaria viridis), deadnettle (henbit deadnettle, Lamium amplexicaule), ryegrass, Ital. (Italian ryegrass, Lolium multiflorum), kochia (Kochia scoparia), lambsquarters (Chenopodium album), oilseed rape (Brassica napus), pigweed (Amaranthus retroflexus), chamomile (scentless chamomile, Matricaria inodora), speedwell (bird's-eye speedwell, Veronica persica), barley, spring (spring barley, Hordeum vulgare), wheat, spring (spring wheat, Triticum aestivum), buckwheat, wild (wild buckwheat, Polygonum convolvulus), wild mustard (Sinapis arvensis), oat, wild (wild oat, Avena fatua), radish, wild (wild radish, Raphanus raphanistrum), […]), barley, winter (winter barley, Hordeum vulgare), and wheat, winter (winter wheat, Triticum aestivum) were planted into a silt loam soil and treated preemergence with test chemicals formulated in a non-phytotoxic solvent mixture which included a surfactant. At the same time, these species were planted in pots containing Sunshine Redi-Earth® planting medium comprising spaghnum peat moss, vermiculite, starter nutrients and dolomitic limestone and treated with postemergence applications of the test chemicals formulated in the same manner. Plants ranged in height from 2 to 18 cm (1- to 4-leaf stage). Treated plants and controls were maintained in a controlled growth environment for 14 to 21 d after which time all species were compared to controls and visually evaluated. […] A dash (-) response means no test result.

corn = assay: Test E postemergence; assay type: in vivo, Zea mays; details: scale 0 to 100
From the text: as §1, §2

chickweed = assay: Test D postemergence; assay type: in vivo, Stellaria media; details: scale 0 to 100
From the text: as §3

kochia = assay: Test E postemergence; assay type: in vivo, Kochia scoparia; details: scale 0 to 100
From the text: as §1, §2

ryegrass, Italian = assay: Test E postemergence; assay type: in vivo, Lolium multiflorum; details: scale 0 to 100
From the text: as §1, §2

[1] = system: waterhemp_RES1 (ALS & Triazine resistant common waterhemp); assay: Test E postemergence; assay type: in vivo, Amaranthus rudis; details: scale 0 to 100
From the text: as §1, §2

waterhemp = assay: Test E postemergence; assay type: in vivo, Amaranthus rudis; details: scale 0 to 100
From the text: as §1, §2

[2] = system: waterhemp_RES2 (ALS & HPPD resistant common waterhemp); assay: Test E postemergence; assay type: in vivo, Amaranthus rudis; details: scale 0 to 100
From the text: as §1, §2

bromegrass, down = assay: Test D postemergence; assay type: in vivo, Bromus tectorum; details: scale 0 to 100
From the text: as §3

goosegrass = assay: Test E preemergence; assay type: in vivo, Eleusine indica; details: scale 0 to 100
From the text: as §1, §2

foxtail, green = assay: Test D postemergence; assay type: in vivo, Setaria viridis; details: scale 0 to 100
From the text: as §3

SMILES: CCOc1nc(-c2ccccc2)nn1Cc1ccnc(C(F)(F)F)c1 [Compound 27]
- Plant response rating (velvetleaf; 16 g ai/ha): 35
- Plant response rating (velvetleaf; 31 g ai/ha): 50
- Plant response rating (velvetleaf; 62 g ai/ha): 50
- Plant response rating (velvetleaf; 125 g ai/ha): 95
- Plant response rating (beggarticks; 16 g ai/ha): 40
- Plant response rating (beggarticks; 31 g ai/ha): 50
- Plant response rating (beggarticks; 62 g ai/ha): 50
- Plant response rating (beggarticks; 125 g ai/ha): 55
- Plant response rating (crabgrass, Brazilian; 16 g ai/ha): 90
- Plant response rating (crabgrass, Brazilian; 31 g ai/ha): 100
- Plant response rating (crabgrass, Brazilian; 62 g ai/ha): 100
- Plant response rating (crabgrass, Brazilian; 125 g ai/ha): 100
- Plant response rating: Canarygrass (canarygrass; 16 g ai/ha): 50
- Plant response rating: Canarygrass (canarygrass; 31 g ai/ha): 65
- Plant response rating: Canarygrass (canarygrass; 62 g ai/ha): 70
- Plant response rating: Canarygrass (canarygrass; 125 g ai/ha): 60
- Plant response rating (corn; 16 g ai/ha): 10
- Plant response rating (corn; 31 g ai/ha): 15
- Plant response rating (corn; 62 g ai/ha): 20
- Plant response rating (corn; 125 g ai/ha): 25
- Plant response rating: Chickweed (chickweed; 16 g ai/ha): 85
- Plant response rating: Chickweed (chickweed; 31 g ai/ha): 95
- Plant response rating: Chickweed (chickweed; 62 g ai/ha): 100
- Plant response rating: Chickweed (chickweed; 125 g ai/ha): 100
- Plant response rating (kochia; 16 g ai/ha): 95
- Plant response rating (kochia; 31 g ai/ha): 100
- Plant response rating (kochia; 62 g ai/ha): 95
- Plant response rating (kochia; 125 g ai/ha): 95
- Plant response rating (ryegrass, Italian; 16 g ai/ha): 20
- Plant response rating (ryegrass, Italian; 31 g ai/ha): 30
- Plant response rating (ryegrass, Italian; 62 g ai/ha): 30
- Plant response rating (ryegrass, Italian; 125 g ai/ha): 40
- Plant response rating ([1]; 16 g ai/ha): 95
- Plant response rating ([1]; 31 g ai/ha): 95
- Plant response rating ([1]; 62 g ai/ha): 95
- Plant response rating ([1]; 125 g ai/ha): 98
- Plant response rating (waterhemp; 16 g ai/ha): 95
- Plant response rating (waterhemp; 31 g ai/ha): 98
- Plant response rating (waterhemp; 62 g ai/ha): 95
- Plant response rating (waterhemp; 125 g ai/ha): 95
- Plant response rating ([2]; 16 g ai/ha): 90
- Plant response rating ([2]; 31 g ai/ha): 95
- Plant response rating ([2]; 62 g ai/ha): 90
- Plant response rating ([2]; 125 g ai/ha): 90
- Plant response rating: Bromegrass, Down (bromegrass, down; 16 g ai/ha): 25
- Plant response rating: Bromegrass, Down (bromegrass, down; 31 g ai/ha): 30
- Plant response rating: Bromegrass, Down (bromegrass, down; 62 g ai/ha): 50
- Plant response rating: Bromegrass, Down (bromegrass, down; 125 g ai/ha): 65
- Plant response rating (goosegrass; 16 g ai/ha): 80
- Plant response rating (goosegrass; 31 g ai/ha): 98
- Plant response rating (goosegrass; 62 g ai/ha): 95
- Plant response rating (goosegrass; 125 g ai/ha): 100
- Plant response rating: Foxtail, Green (foxtail, green; 16 g ai/ha): 35
- Plant response rating: Foxtail, Green (foxtail, green; 31 g ai/ha): 65
- Plant response rating: Foxtail, Green (foxtail, green; 62 g ai/ha): 80
- Plant response rating: Foxtail, Green (foxtail, green; 125 g ai/ha): 95
